Some results are limits rather than exact numbers.

One data set has as its system sodium channel. The data set can be described thus: Guanidine influx assay (14C-guanidine radiotracer flux) in a known cell line that expresses a sodium channel. The format is cell-based, human or rat. An excerpt:
This example describes an in vitro assay for testing and profiling test agents against human or rat sodium channels stably expressed in cells of either an endogenous or recombinant origin.
The guanidine influx assay is a radiotracer flux assay used to determine ion flux activity of sodium channels in a high-throughput microplate-based format. The assay uses ^14C-guanidine hydrochloride in combination with various known sodium channel modulators, to assay the potency of test agents. Potency is determined by an IC50 calculation. Selectivity is determined by comparing potency of the compound for the channel of interest to its potency against other sodium channels (also called ‘selectivity profiling’).
Each of the test agents is assayed against cells that express the sodium channel of interest. Voltage gated sodium channels are either TTX sensitive or insensitive. This property is useful when evaluating the activities of a channel of interest when it resides in a mixed population with other sodium channels. The following Table 1 lists certain cell lines which are useful in screening for a certain sodium channel activity in the presence or absence of TTX.
It is also possible to employ recombinant cells expressing these sodium channels.
Cells expressing the channel of interest are grown according to the supplier or in the case of a recombinant cell in the presence of selective growth media such as G418 (Gibco/Invitrogen). The cells are disassociated from the culture dishes with an enzymatic solution (1×) Trypsin/EDTA (Gibco/Invitrogen) and analyzed for density and viability using haemocytometer (Neubauer). Disassociated cells are washed and resuspended in their culture media then plated into Scintiplates (Beckman Coulter Inc.) (approximately 100,000 cells/well) and incubated at 37° C./5% CO2 for 20-24 hours. After an extensive wash with Low sodium HEPES-buffered saline solution (LNHBSS) (150 mM Choline Chloride, […] (Sigma), 1 mM Calcium Chloride, 5 mM Potassium Chloride, 1 mM Magnesium Chloride, 10 mM Glucose) agents diluted with LNHBSS are added to each well. (Varying concentrations of test agent may be used). The activation/radiolabel mixture contains aconitine (Sigma), and ^14C-guanidine hydrochloride (ARC).
After loading the cells with test agent and activation/radiolabel mixture, the Scintiplates are incubated at ambient temperature. Following the incubation, the Scintplates are extensively washed with LNHBSS supplemented with guanidine (Sigma). The Scintiplates are dried and then counted using a Wallac MicroBeta TriLux (Perkin-Elmer Life Sciences). The ability of the test agent to block sodium channel activity is determined by comparing the amount of ^14C-guanidine present inside the cells expressing the different sodium channels.
IC50 value of a test agent for a specific sodium channel may be determined using the above general method. […] The IC50 curve is calculated using the 4 Parameter Logistic Model or Sigmoidal Dose-Response Model formula (fit=(A+((B−A)/(1+((C/x)^D)))).
The fold selectivity, factor of selectivity or multiple of selectivity, is calculated by dividing the IC50 value of the test sodium channel by the reference sodium channel, for example, Nav1.5.
The Example numbers provided in Table 2 correspond to the Example numbers herein: […]

For another data set, the system named is Nav1.4 in CHO-K1 cells. Format: cell-based, Chinese hamster.
Data set [1] has as its system Nav1.8 in SK-N-BE2C cells. Format: cell-based, human.
Data set [2] concerns Nav1.4 and 1.5 in L6 cells. Format: cell-based, rat.
A further data set has as its target Nav1.2 in PC12 cells (Rattus norvegicus, UniProt P04775).

Nav1.2 in PC12 cells, sequence (P04775 whole entry, looked up): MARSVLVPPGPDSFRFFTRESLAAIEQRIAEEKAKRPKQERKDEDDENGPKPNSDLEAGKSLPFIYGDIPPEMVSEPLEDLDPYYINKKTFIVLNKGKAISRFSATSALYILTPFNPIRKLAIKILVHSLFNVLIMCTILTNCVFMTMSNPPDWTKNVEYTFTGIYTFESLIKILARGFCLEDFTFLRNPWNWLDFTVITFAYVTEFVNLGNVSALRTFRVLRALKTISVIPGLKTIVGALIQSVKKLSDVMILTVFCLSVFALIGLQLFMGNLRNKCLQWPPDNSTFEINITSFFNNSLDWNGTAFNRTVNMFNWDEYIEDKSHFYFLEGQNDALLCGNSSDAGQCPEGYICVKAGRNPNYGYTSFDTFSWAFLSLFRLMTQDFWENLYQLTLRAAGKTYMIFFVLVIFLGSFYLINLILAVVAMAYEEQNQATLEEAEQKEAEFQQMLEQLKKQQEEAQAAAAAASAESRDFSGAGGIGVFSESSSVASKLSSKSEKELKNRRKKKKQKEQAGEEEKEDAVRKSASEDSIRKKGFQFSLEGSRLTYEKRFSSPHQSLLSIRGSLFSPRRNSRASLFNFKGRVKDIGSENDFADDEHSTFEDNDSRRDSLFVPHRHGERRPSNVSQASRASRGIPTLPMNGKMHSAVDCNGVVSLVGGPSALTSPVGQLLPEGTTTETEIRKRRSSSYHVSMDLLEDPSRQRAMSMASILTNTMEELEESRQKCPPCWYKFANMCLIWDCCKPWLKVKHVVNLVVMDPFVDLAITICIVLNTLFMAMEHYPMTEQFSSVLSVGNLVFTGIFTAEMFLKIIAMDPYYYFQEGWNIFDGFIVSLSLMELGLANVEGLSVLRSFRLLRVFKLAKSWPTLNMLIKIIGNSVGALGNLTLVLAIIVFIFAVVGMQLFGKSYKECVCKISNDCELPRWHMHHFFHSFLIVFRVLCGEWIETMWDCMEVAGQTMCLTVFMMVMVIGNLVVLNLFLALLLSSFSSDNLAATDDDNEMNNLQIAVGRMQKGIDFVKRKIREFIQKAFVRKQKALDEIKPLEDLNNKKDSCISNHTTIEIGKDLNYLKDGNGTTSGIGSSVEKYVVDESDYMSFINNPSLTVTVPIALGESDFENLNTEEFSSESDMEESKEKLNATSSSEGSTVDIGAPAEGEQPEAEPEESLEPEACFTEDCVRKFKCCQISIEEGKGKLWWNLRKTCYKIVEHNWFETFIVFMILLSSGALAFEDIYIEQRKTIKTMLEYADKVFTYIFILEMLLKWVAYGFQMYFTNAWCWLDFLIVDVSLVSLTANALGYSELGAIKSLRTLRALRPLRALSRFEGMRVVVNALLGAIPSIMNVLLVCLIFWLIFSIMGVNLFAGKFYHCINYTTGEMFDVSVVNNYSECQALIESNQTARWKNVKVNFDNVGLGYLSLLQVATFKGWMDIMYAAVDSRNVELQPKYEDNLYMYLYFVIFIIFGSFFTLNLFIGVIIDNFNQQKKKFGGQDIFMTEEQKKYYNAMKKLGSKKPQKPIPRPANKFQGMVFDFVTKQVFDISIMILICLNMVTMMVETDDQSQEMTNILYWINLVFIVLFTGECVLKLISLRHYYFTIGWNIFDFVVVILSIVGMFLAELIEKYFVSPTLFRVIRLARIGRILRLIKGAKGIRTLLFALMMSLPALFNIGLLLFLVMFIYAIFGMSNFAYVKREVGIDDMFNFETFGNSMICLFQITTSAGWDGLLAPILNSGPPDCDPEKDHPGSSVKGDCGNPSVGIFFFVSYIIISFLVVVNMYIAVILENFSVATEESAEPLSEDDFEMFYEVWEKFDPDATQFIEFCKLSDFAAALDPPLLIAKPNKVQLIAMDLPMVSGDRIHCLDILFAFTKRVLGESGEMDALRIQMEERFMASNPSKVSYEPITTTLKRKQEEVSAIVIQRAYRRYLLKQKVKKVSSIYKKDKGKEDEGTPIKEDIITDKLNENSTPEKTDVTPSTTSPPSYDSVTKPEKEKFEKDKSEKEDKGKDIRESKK

As for `O=C1N(CCC2CC2)c2ccccc2C12COc1cc3c(cc12)OCO3` (stereo not shown) [Example 1, 1′-(2-cyclopropylethyl)spiro[furo[2,3-f][1,3]benzodioxole-7,3′-indol]-2′(1′H)-one], the melting point lay within 125 to 127 °C. Besides, in the data set on sodium channel, the IC50 was 1 to 10 nM.
Turning to `CCCCCN1C(=O)C2(OCc3cc4c(cc32)OCO4)c2ccccc21` (stereo not shown) [Example 20, 1′-pentyl-7H-spiro[furo[3,4-f][1,3]benzodioxole-5,3′-indol]-2′(1′H)-one], the melting point was 113 to 115 °C. In addition, in the data set with sodium channel, the IC50 was in the range of 1 to 10 nM.
Consider `CCCCCN1C(=O)C2(CC(OC)c3cc4c(cc32)OCO4)c2ccccc21` (stereo not shown) [Example 27, 7-methoxy-1′-pentyl-6,7-dihydrospiro[indeno[5,6-d][1,3]dioxole-5,3′-indol]-2′(1′H)-one], for which, in the data set on sodium channel, the concentration for half-maximal inhibition (IC50) is above 1000 nM.
On the same count and under the same terms, the same measure for `CCCCCN1C(=O)C2(CNC(=O)c3cc4c(cc32)OCO4)c2ccccc21` (stereo not shown) [Example 28, 1′-pentyl-6,7-dihydro-5H-spiro[1,3-dioxolo[4,5-d]isoquinoline-8,3′-indole]-2′,5(1′H)-dione]: above 1000 nM; for `CCCCCN1C(=O)C2(COc3cc4c(cc32)OCO4)c2c(C(=O)Nc3ccccn3)cccc21` (stereo not shown) [Example 29, 2′-oxo-1′-pentyl-N-pyridin-2-yl-1′,2′-dihydrospiro[furo[2,3-f][1,3]benzodioxole-7,3′-indole]-4′-carboxamide]: above 1000 nM.
Compound `CCCCCN1C(=O)C2(COc3cc4c(cc32)OCO4)c2c(C#N)cccc21` (stereo not shown) [Example 30, 2′-oxo-1′-pentyl-1′,2′-dihydrospiro[furo[2,3-f][1,3]benzodioxole-7,3′-indole]-4′-carbonitrile] gave a melting point of 128 to 129 °C. Moreover, the IC50 in the data set with sodium channel fell in the range of 10 to 100 nM.
Regarding `CCCCCCN1C(=O)C2(CC(=O)Oc3cc4c(cc32)OCO4)c2ccccc21` (stereo not shown) [Example 31, 1′-hexylspiro[1,3-dioxolo[4,5-g]chromene-8,3′-indole]-2′,6(1′H,7H)-dione], the half-inhibitory concentration (IC50) with sodium channel was above 1000 nM.
As to `CCCCCN1C(=O)C2(COc3ccccc32)c2ccccc21` (stereo not shown) [Example 32, 1′-pentylspiro[1-benzofuran-3,3′-indol]-2′(1′H)-one], the IC50 with sodium channel was 10 to 100 nM.
For `CCCCCN1C(=O)C2(COc3cc(Nc4ccccc4)ccc32)c2ccccc21` (stereo not shown) [Example 33, 6-anilino-1′-pentylspiro[1-benzofuran-3,3′-indol]-2′(1′H)-one], the half-maximal inhibitory concentration (IC50) in the data set on sodium channel was above 1000 nM.
For the compound `CCCCCN1C(=O)C2(COc3cc(N4CCOCC4)ccc32)c2ccccc21` (stereo not shown) [Example 34, 6-morpholin-4-yl-1′-pentylspiro[1-benzofuran-3,3′-indol]-2′(1′H)-one], the 50% inhibitory concentration (IC50) in the data set on sodium channel is above 1000 nM.
Consider `CCCCCN1C(=O)C2(COc3cc(Oc4ccccc4)ccc32)c2ccccc21` (stereo not shown) [Example 36, 1′-pentyl-6-phenoxyspiro[1-benzofuran-3,3′-indol]-2′(1′H)-one], for which the concentration for half-maximal inhibition (IC50) in the data set on sodium channel is above 1000 nM.
Regarding `CCCCCN1C(=O)C2(COc3cc(-c4cccnc4)ccc32)c2ccccc21` (stereo not shown) [Example 37, 1′-pentyl-6-pyridin-3-ylspiro[1-benzofuran-3,3′-indol]-2′(1′H)-one], the half-inhibitory concentration (IC50) in the data set on sodium channel is above 1000 nM.
In turn, `CCCCCN1C(=O)C2(COc3cc(-c4ccncc4)ccc32)c2ccccc21` (stereo not shown) [Example 38, 1′-pentyl-6-pyridin-4-ylspiro[1-benzofuran-3,3′-indol]-2′(1′H)-one] displayed a melting point of 107 to 110 °C. Also, the IC50 in the data set on sodium channel fell in the range of 100 to 1000 nM.
As to `CCCCCN1C(=O)C2(COc3cc(S(C)(=O)=O)ccc32)c2ccccc21` (stereo not shown) [Example 39, 6-(methylsulfonyl)-1′-pentylspiro[1-benzofuran-3,3′-indol]-2′(1′H)-one], the IC50 in the data set on sodium channel is above 1000 nM.
With `CCCCCN1C(=O)C2(COc3cc(S(=O)(=O)c4ccccc4)ccc32)c2ccccc21` (stereo not shown) [Example 40, 1′-pentyl-6-(phenylsulfonyl)spiro[1-benzofuran-3,3′-indol]-2′(1′H)-one], in the data set with sodium channel, the half-maximal inhibitory concentration (IC50) lay in the range of 100 to 1000 nM.
With `CCCCCN1C(=O)C2(COc3ccc(Oc4ccccc4)cc32)c2ccccc21` (stereo not shown) [Example 41, 1′-pentyl-5-phenoxyspiro[1-benzofuran-3,3′-indol]-2′(1′H)-one], in the data set with sodium channel, the concentration for half-maximal inhibition (IC50) was above 1000 nM.
With `CCCCCN1C(=O)C2(COc3ccc(-c4cccnc4)cc32)c2ccccc21` (stereo not shown) [Example 48, 1′-pentyl-5-pyridin-3-ylspiro[1-benzofuran-3,3′-indol]-2′(1′H)-one], the IC50 in the data set with sodium channel was in the range of 100 to 1000 nM.
The compound `CCCCCN1C(=O)C2(COc3ccc(-c4cncnc4)cc32)c2ccccc21` (stereo not shown) [Example 49, 1′-pentyl-5-pyrimidin-5-ylspiro[1-benzofuran-3,3′-indol]-2′(1′H)-one] yielded a melting point of 115 to 117 °C. In the data set on sodium channel, the 50% inhibitory concentration (IC50) was in the range of 100 to 1000 nM.
Take `CCCCCN1C(=O)C2(COc3ccc(-c4ccncc4)cc32)c2ccccc21` (stereo not shown) [Example 50, 1′-pentyl-5-pyridin-4-ylspiro[1-benzofuran-3,3′-indol]-2′(1′H)-one]: the IC50 in the data set on sodium channel was in the range of 100 to 1000 nM.
Consider `CCCCCN1C(=O)C2(COc3ccc(C#N)cc32)c2ccccc21` (stereo not shown) [Example 51, 2′-oxo-1′-pentyl-1′,2′-dihydrospiro[1-benzofuran-3,3′-indole]-5-carbonitrile], for which the IC50 in the data set with sodium channel lay in the range of 100 to 1000 nM.
Regarding `O=C(CN1C(=O)C2(COc3ccc(-c4cccnc4)cc32)c2ccccc21)Nc1ccccc1F` (stereo not shown) [Example 52, N-(2-fluorophenyl)-2-(2′-oxo-5-pyridin-3-ylspiro[1-benzofuran-3,3′-indol]-1′(2′H)-yl)acetamide], the melting point lay in the range of 98 to 100 °C. For the same compound, in the data set on sodium channel, the IC50 lay in the range of 100 to 1000 nM.
`O=C1N(C(c2ccccc2)c2ccccc2)c2ccccc2C12COc1ccc(-c3cccnc3)cc12` (stereo not shown) [Example 54, 1′-(diphenylmethyl)-5-pyridin-3-ylspiro[1-benzofuran-3,3′-indol]-2′(1′H)-one] registered a melting point of 204 to 207 °C. Besides, the IC50 in the data set on sodium channel is above 1000 nM.
For `CC(C)(C)OC(=O)N1CCCC(c2ccc3c(c2)C2(CO3)C(=O)Nc3ccccc32)C1` (stereo not shown) [Example 55, tert-butyl 3-(2′-oxo-1′,2′-dihydrospiro[1-benzofuran-3,3′-indol]-5-yl)piperidine-1-carboxylate], the melting point was 120 to 123 °C. Further, the half-maximal inhibitory concentration (IC50) with sodium channel is above 1000 nM.
On to `O=C(NCCN1C(=O)C2(COc3cc4c(cc32)OCO4)c2ccccc21)c1ccccc1OC(F)(F)F` (stereo not shown) [Example 59, N-[2-(2′-oxospiro[furo[2,3-f][1,3]benzodioxole-7,3′-indol]-1′(2′H)-yl)ethyl]-2-(trifluoromethoxy)benzamide], for which the melting point lay within 183 to 184 °C. The concentration for half-maximal inhibition (IC50) in the data set on sodium channel was 100 to 1000 nM.
On to `NC1=N[C@H](O)[C@H]2[C@H]3O[C@]4(O)O[C@@H]([C@@H](O)[C@@]2(N1)[C@@H]4O)[C@]3(O)CO` [TTX], for which the “block of [14C] Guanidine influx by TTX” value is reported as “Guanidine influx was completely” with Nav1.4 in CHO-K1 cells, “TTX partially blocked influx” in data set [1], “partially blocked by TTX (Nav1.5” in data set [2] and “Guanidine influx was completely” on Nav1.2 in PC12 cells.

Values taken from patent publication US8466188B2, “Use of spiro-oxindole compounds as therapeutic agents” (Xenon Pharmaceuticals Inc., priority 2006, dated 2013).
